test: Oxidation test squalene test (Raman, azo initiator V65); settings: 2500 ppm test substance, azo initiator V65, 30 days at 40° C., squalene content by Raman spectrum
Procedure: 3 ml of a 2% strength solution of the azo initiator V65 (from Wako) are introduced together with 2500 ppm of test substance (based on the squalene solution) into 12×100 […] Fiolax test tubes and thoroughly mixed using a laboratory shaker. The samples are then stored open in a through-circulation drying oven for 30 days at 40° C. At intervals of 7 days, the squalene content of the samples is determined by means of the Raman spectrum and chemometric evaluation. The datapoints are documented in an XY graph and the efficiency of the test substance is determined from the slope of the decomposition curves in comparison with a reference sample without test substance. The slope of the reference sample divided by the slope of the test substance sample gives the factor Q_Raman.

Molecule	Qraman (slope of reference sample divided by slope of test substance sample)
CN1C(C)(C)CC(N(C=O)CCCCCCN(C=O)C2CC(C)(C)N(C)C(C)(C)C2)CC1(C)C	2.4
CCCCN(c1nc(NCCCN(CCN(CCCNc2nc(N(CCCC)C3CC(C)(C)N(C)C(C)(C)C3)nc(N(CCCC)C3CC(C)(C)N(C)C(C)(C)C3)n2)c2nc(N(CCCC)C3CC(C)(C)N(C)C(C)(C)C3)nc(N(CCCC)C3CC(C)(C)N(C)C(C)(C)C3)n2)c2nc(N(CCCC)C3CC(C)(C)N(C)C(C)(C)C3)nc(N(CCCC)C3CC(C)(C)N(C)C(C)(C)C3)n2)nc(N(CCCC)C2CC(C)(C)N(C)C(C)(C)C2)n1)C1CC(C)(C)N(C)C(C)(C)C1	1.4
CC1(C)CC(N2CN3C(=O)N4CN(C5CC(C)(C)NC(C)(C)C5)CN5C(=O)N(C2)C3C45)CC(C)(C)N1	1.3
CN1C(C)(C)CC(N2CN3C(=O)N4CN(C5CC(C)(C)N(C)C(C)(C)C5)CN5C(=O)N(C2)C3C45)CC1(C)C	2.2
CC(ON1C(C)(C)CC(O)CC1(C)C)c1ccccc1 (stereo not drawn)	1.3
COC(=O)C(CO)ON1C(C)(C)CC(OC)CC1(C)C (stereo not drawn)	1.8
CCCCCCCCCCCCC1CC(=O)N(C2CC(C)(C)N(C)C(C)(C)C2)C1=O (stereo not drawn)	6.2
O=C1O[C@H]([C@@H](O)CO)C(O)=C1O [Ascorbic acid]	1.2
CCCCCCCCON1C(C)(C)CC(OC(=O)CCCCCCCCC(=O)OC2CC(C)(C)N(OCCCCCCCC)C(C)(C)C2)CC1(C)C [Tinuvin 123]	1.8
CCCCCCCCCCCCC1CC(=O)N(C2CC(C)(C)NC(C)(C)C2)C1=O (stereo not drawn) [drawing 31]	7.1
Tocopherol	1.4

test: not given; settings: footnotes 2-4: BASF Technical Information / H. Zweifel; cited from earlier work

Molecule	pKa
CC1(C)CC(N2CN3C(=O)N4CN(C5CC(C)(C)NC(C)(C)C5)CN5C(=O)N(C2)C3C45)CC(C)(C)N1	9.8^2)

test: Solubility of various HAS compounds in Miglyol 812; assay type: physicochemical; settings: introduced in portions into 10 g of Miglyol, stirred at room temperature
Text: Experimental procedure: The respective MS compound was introduced gradually in small portions into 10 g of Miglyol and in each case stirred at room temperature until it had completely dissolved.

Molecule	Solubility in Miglyol 812
CCCCCCCCCCCCC1CC(=O)N(C2CC(C)(C)NC(C)(C)C2)C1=O (stereo not drawn) [2-Dodecyl-N-(2,2,6,6-tetramethyl-4-piperidinyl)succinimide]	min. 50%
CC1(C)CC(OC(=O)CCCCCCCCC(=O)OC2CC(C)(C)NC(C)(C)C2)CC(C)(C)N1 [Tinuvin ® 770]	4.7%
CC1(C)CC(N(C=O)CCCCCCN(C=O)C2CC(C)(C)NC(C)(C)C2)CC(C)(C)N1 [Uvinul ® 4050H]	insoluble

From patent US20080220031A1, “Dermocosmetic Preparations” (BASF Aktiengesellschaft, priority 2005, published 2008)
